From patent publication US8530511B2, “Administration of dithiolane compounds for photoprotecting the skin” (L'Oreal, priority 2008, dated 2013)
Where “and” joins values, the source holds several entries; their conditions need not be identical. Identical values can stand only once.

Tests used:
HaCaT cells = assay: MCB test on HaCaT: intracellular GSH level after UV daylight (UV-DL) exposure; assay type: cell-based, human; conditions: for activity at 100 µM / inhibition at 100 µM / activity at 30 µM / inhibition at 30 µM: Homo sapiens, t=6 hours after exposure; for activity at 100 µM / activity at 30 µM: GSH-monochlorobimane fluorescence, HaCaT pretreated and exposed to UV-DL, read-out: % fluo; for inhibition at 100 µM / inhibition at 30 µM: against UV-DL-induced depletion of GSH, read-out: % protection; for inhibition at 100 µM / inhibition at 30 µM / protection against the UV-DL-induced depletion of GSH: HaCaT
Method: The study consisted in evaluating at the cellular level the protective effect of the reference molecule, lipoic acid, and also of lipoic acid derivatives according to the invention, with respect to the UV-DL-induced depletion of intracellular GSH.
To do this, HaCaT cells were exposed to UV daylight (UV-DL). The level of intracellular GSH was then measured, thus allowing evaluation of the possible protection afforded by the addition to the culture medium of the lipoic acid derivatives according to the invention.
UV daylight corresponds to the radiation of non-zenithal sunlight and to an average spectral illumination: it […] the radiation received by the skin of an individual in the course of a day and not solely to that corresponding to exposure to zenithal sunlight. Devices for reproducing this radiation are described in FR 2,863,356. The evaluation technique uses a fluorescent probe, monochlorobimane (MCB). […] The specificity of MCB towards GSH in our keratinocyte model (HaCaT line) was confirmed previously. Pretreatment of cells with the reference molecule, lipoic acid, for 24 hours at 1 mM affords approximately 100% protection against the UV-DL-induced depletion of GSH (see FIG. 1 showing the evaluation of the protective effect of lipoic acid at 1 mM in the MCB test on HaCaT: the measurement of the level of intracellular GSH is performed on keratinocytes that are or are not pretreated with lipoic acid at 1 mM and exposed to UV-DL at t=0, t=6 hours and t=24 hours after the exposure to UV-DL); this protection is about 83% at 500 μM and about 10% at 100 μM.
Evaluation of the protective effect of compound 1 at 100 μM and at 30 μM of compounds 9, 10, 2, 13, 14, 12, 24, 26 and 27 is performed in the MCB test on HaCaT: evaluation of the protective effect of the silyl dithiolane compounds of WO 2008/058 999 at 100 μM is also performed in the MCB test on HaCaT: the compound 5-(1,2-dithiolan-3-yl)-N-[3-(trimethylsilyl)propyl]pentanamide and the compound (trimethylsilyl)methyl 5-(1,2-dithiolan-3-yl)pentanoate. Measurement of the intracellular level of GSH is performed on keratinocytes that have or have not been pretreated with the active agents and exposed to UV-DL, t=6 hours after the exposure to UV-DL). The results are given in the graphs in FIGS. 2 and 3.

[1] = system: normal human fibroblasts (NHF); assay: Comet test: UV-A-induced DNA damage in normal human fibroblasts; assay type: cell-based; conditions: 24 hours contact, UV-A = 30 min
Excerpt: Solar UV is capable of giving rise to extensive oxidative damage in skin cells, and especially in DNA. The nucleic acids absorb the UV-B photons, thus inducing DNA damage directly. Although UV-A is not directly absorbed by DNA, it has a genotoxic action mediated by reactive oxygen species. The comet test makes it possible to quantify the UV-induced DNA damage (in this case UV-A): the breaking of strands and oxidative DNA lesions (alkali-labile sites cleaved under alkaline conditions) are detected. The principle of this test is based on the capacity of denatured and cleaved DNA fragments to migrate outside the cell nuclei, under the influence of an electric field, whereas undamaged DNA remains confined in the nucleus. The damaged DNA fragments form a trail behind the cell nucleus. The cells then take the appearance of “comets”. The “tail” of each comet is proportionately larger and stronger the greater the DNA damage incurred. (Alapetite C. et al., 1996, Int. J. Rad. Bio.; Klaude M, et al., 1996, Mut. Res.; Lehmann J. et al., 1998, Mut. Res.; Singh N P. et al., 1988, Exp. Cell Res.).
The study consisted in evaluating the photoprotective effect of two molecules with respect to UV-A-induced DNA damage. To do this, normal human fibroblasts (NHF) were placed in contact with the active agents for 24 hours. The cells were then detached, included in an agarose gel and then deposited on a microscope slide. Following the UV-A exposure (for 30 minutes), the cells were subjected to cell lysis (so as to keep intact only the genetic material), to a DNA-denaturing step and then to electrophoresis to make the damaged DNA migrate. The level of damaged DNA was measured using a fluorescence microscope combined with specialized image analysis software.

Row | Compound | activity at 100 µM (HaCaT cells) [%] | inhibition at 100 µM (HaCaT cells) [%] | activity at 30 µM (HaCaT cells) [%] | inhibition at 30 µM (HaCaT cells) [%] | further results
1 | C[Si](C)(C)CCCNC(=O)CCCCC1CCSS1 (stereo not shown) [5-(1,2-dithiolan-3-yl)-N-[3-(trimethylsilyl)propyl]pentanamide, reference compound] | 75 | 41 |  |  | 
2 | C[Si](C)(C)COC(=O)CCCCC1CCSS1 (stereo not shown) [(trimethylsilyl)methyl 5-(1,2-dithiolan-3-yl)pentanoate, reference compound] | 76 | 42 |  |  | 
3 | CC1(C(=O)O)CSSC1 [Compound 1, 4-methyl-1,2-dithiolane-4-carboxylic acid] | 88 | 74 |  |  | % of DNA damage ([1]; 1 μM): 80.7%; % protection ([1]; 1 μM): 19.3%; Mean TM (DNA damage) ([1]; 1 μM): 9.38; % protection ([1]; 1 μM, listed as compound 1): 20%; % of DNA damage ([1]; 10 μM): 69.4%; % protection ([1]; 10 μM): 30.6%; Mean TM (DNA damage) ([1]; 10 μM): 8.06; % protection ([1]; 10 μM, listed as compound 1): 30%
4 | CC1(C(N)=O)CSSC1 [Compound 2, 4-methyl-1,2-dithiolane-4-carboxamide] |  |  | 92 | 86 | % of DNA damage ([1]; 10 μM): 37.1%; % protection ([1]; 10 μM): 63% and 62.9%; Mean TM (DNA damage) ([1]; 10 μM): 2.73
5 | CCCCCCCCOC(=O)C1(C)CSSC1 [Compound 9, octyl 4-methyl-1,2-dithiolane-4-carboxylate] |  |  | 80 | 66 | 
6 | CCCCCCCNC(=O)C1(C)CSSC1 [Compound 10, N-heptyl-4-methyl-1,2-dithiolane-4-carboxamide] |  |  | 99 | 98 | 
7 | COC(=O)C(CCSC)NC(=O)C1(C)CSSC1 (stereo not shown) [Compound 12, methyl 2-{[(4-methyl-1,2-dithiolan-4-yl)carbonyl]amino}-4-(methylsulfanyl)butanoate] |  |  | 78 | 61 | 
8 | CC(=O)NCCSC(=O)C1(C)CSSC1 [Compound 13, S-[2-(acetylamino)ethyl]4-methyl-1,2-dithiolane-4-carbothioate] |  |  | 71 | 50 | 
9 | CC1(C(=O)NCCO)CSSC1 [Compound 14, N-(2-hydroxyethyl)-4-methyl-1,2-dithiolane-4-carboxamide] |  |  | 78 | 61 | 
10 | CC1(C(=O)O)CSS(=O)(=O)C1 (stereo not shown) [Compound 24, 4-methyl-1,2-dithiolane-4-carboxylic acid 1,1-dioxide] |  |  | 91 | 63 | 
11 | CC1(C(N)=O)CS[S+]([O-])C1 (stereo not shown) [Compound 26, 4-methyl-1,2-dithiolane-4-carboxamide 1-oxide] |  |  | 117 | 169 | 
12 | CC1(C(N)=O)CSS(=O)(=O)C1 (stereo not shown) [Compound 27, 4-methyl-1,2-dithiolane-4-carboxamide 1,1-dioxide] |  |  | 100 | 101 | 
13 | O=C(O)CCCCC1CCSS1 (stereo not shown) [lipoic acid, 1,2-dithiacyclopentane-3-valeric acid, reference compound] | 63 | 13 |  |  | protection against the UV-DL-induced depletion of GSH (HaCaT cells; pretreatment at 100 μM): about 10%; protection against the UV-DL-induced depletion of GSH (HaCaT cells; pretreatment at 500 μM): about 83%; protection against the UV-DL-induced depletion of GSH (HaCaT cells; pretreatment for 24 hours at 1 mM): approximately 100%
